Assay results as given in patent publication US20240239775A1, “FXR REGULATOR, PREPARATION METHOD THEREFOR, PHARMACEUTICAL COMPOSITION THEREOF AND USE THEREOF” (QINGDAO RUIJI MEDICAL TECHNOLOGY CO., LTD., priority 2021, published 2024).

biological target: T1, FXR (Homo sapiens, UniProt Q96RI1); test: FXR antagonist screening by TR-FRET (LanthaScreen TR-FRET FXR co-activation assay kit); assay type: biochemical; details: Table 1.2, FXR antagonistic activity; TR-FRET with CDCA; geometric means of at least two independent runs
T1 construct: 5 μL of 20 nM FXR-LBD Complete Coregulator buffer G; purchased ThermoFisher PV4833
T1 sequence (Q96RI1 262-486 limits assumed): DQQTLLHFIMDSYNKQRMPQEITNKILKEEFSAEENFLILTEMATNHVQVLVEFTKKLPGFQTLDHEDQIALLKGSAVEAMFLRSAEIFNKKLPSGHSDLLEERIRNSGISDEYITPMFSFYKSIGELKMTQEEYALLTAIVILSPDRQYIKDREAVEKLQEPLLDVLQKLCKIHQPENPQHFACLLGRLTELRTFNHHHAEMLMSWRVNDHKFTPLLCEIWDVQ
Description: FXR activity was evaluated by time-resolved fluorescence resonance energy transfer (TR-FRET) assay, using LanthaScreen™ TR-FRET FXR co-activation assay kit (ThermoFisher, Cat. PV4833). For agonist screening, 10 μL of Complete Coregulator buffer G containing the corresponding concentration of the compound to be tested, 5 μL of 20 nM FXR-LBD Complete Coregulator buffer G, and 5 μL of 2.0 μM Fluorescein-SRC2-2/20 nM Tb-anti-GST antibody Complete Coregulator buffer G were added to each well of a 384-well black plate (Coring) in sequence. […] Three duplicate wells were set up for each compound, with CDCA as the positive compound and DMSO as the solvent control. For antagonist screening, 5 μL of Complete Coregulator buffer G containing the corresponding concentration of the compound to be tested, 5 μL of 20 nM FXR-LBD Complete Coregulator buffer G, 5 μL of 200 μM CDCA FXR-LBD Complete Coregulator buffer G, and 5 μL of 2.0 μM Fluorescein-SRC2-2/20 nM Tb-anti-GST antibody Complete Coregulator buffer G were added to each well of a 384-well black plate (Coring) in sequence and incubated at room temperature for 10 h. Following operations were the same as those for agonist screening

Compound | IC50
Cc1c(C(=O)O)oc2ccc(S(=O)(=O)N(CCc3ccccc3)c3ccccc3N3CCC4(CC3)CN(C(=O)c3sccc3Br)C4)cc12 [Example F27-S150] | 0.1 to 10 µM
Cc1c(C(=O)O)oc2ccc(S(=O)(=O)N(CCc3ccccc3)c3ccccc3N3CC4CC(C3)N4C(=O)c3sccc3Br)cc12 [Example F27-S151, 5-(N-(2-(6-(3-bromothiophene-2-carbonyl)-3,6-diazabicyclo[3.1.1]heptan-3-yl)phenyl)-N-phenethylsulfamoyl)-3-methylbenzofuran-2-carboxylic acid] | 0.1 to 10 µM
Cc1c(C(=O)O)oc2ccc(S(=O)(=O)N(CCc3ccccc3)c3ccccc3N3CCN(C(=O)c4sccc4Br)C[C@@H]3C)cc12 [Example F27-S152, (S)-5-(N-(2-(4-(3-bromothiophene-2-carbonyl)-2-methylpiperazin-1-yl)phenyl)-N-phenethylsulfamoyl)-3-methylbenzofuran-2-carboxylic acid] | 0.1 to 10 µM
Cc1c(C(=O)O)oc2ccc(S(=O)(=O)N(CCc3ccccc3)c3ccccc3N3CCN(C(=O)c4sccc4Br)C[C@H]3C)cc12 [Example F27-S153, (R)-5-(N-(2-(4-(3-bromothiophene-2-carbonyl)-2-methylpiperazin-1-yl)phenyl)-N-phenethylsulfamoyl)-3-methylbenzofuran-2-carboxylic acid] | 0.1 to 10 µM
Cc1c(C(=O)O)oc2ccc(S(=O)(=O)N(CCc3ccccc3)c3ccccc3N3CCCN(C(=O)c4sccc4Br)CC3)cc12 [Example F27-S154, 5-(N-(2-(4-(3-bromothiophene-2-formyl)-1,4-diazepin-1-yl)phenyl)-N-phenethylsulfamoyl)3-methylbenzofuran-2-carboxylic acid] | 0.1 to 10 µM
Cc1c(C(=O)O)oc2ccc(S(=O)(=O)N(CCc3ccccc3)c3ccccc3N3C4CCC3CN(C(=O)c3sccc3Br)C4)cc12 [Example F27-S155, 5-(N-(2-(3-(3-bromothiophene-2-formyl)-3,8-diazepine[3.2.1]cyclooctan-8-yl)phenyl)-N-phenethylsulfamoyl)3-methylbenzofuran-2-carboxylic acid] | 0.1 to 10 µM
Cc1c(C(=O)O)oc2ccc(S(=O)(=O)N(CCc3ccccc3)c3ccccc3N3CCN(C(=O)c4sccc4Br)C(C)C3)cc12 (stereo not shown) [Example F27-S156, 5-(N-(2-(4-(3-bromothiophene-2-formyl)-3-methylpiperazin-1-yl)phenyl)-N-phenethylsulfamoyl)3-methylbenzofuran-2-carboxylic acid] | 0.1 to 10 µM
Cc1c(C(=O)O)oc2ccc(S(=O)(=O)N(CCc3ccccc3)c3ccccc3N3CC4CC3CN4C(=O)c3sccc3Br)cc12 (stereo not shown) [Example F27-S157, 5-(N-(2-(5-(3-bromothiophene-2-formyl)-2,5-diazabicyclo[2.2.1]hept-2-yl)phenyl)-N-phenethylsulfamoyl)3-methylbenzofuran-2-carboxylic acid] | 0.1 to 10 µM
Cc1c(C(=O)O)sc2ccc(S(=O)(=O)N(CCc3ccccc3)c3ccccc3N3CCN(C(=O)c4sccc4Br)CC3)cc12 [Example F27-S158, 5-(N-(2-(4-(3-bromothiophene-2-carbonyl)piperazin-1-yl)phenyl)-N-phenethylsulfamoyl)-3-toluothiophene-2-carboxylic acid] | 0.1 to 10 µM
O=C(O)c1cc2cc(S(=O)(=O)N(CCc3ccccc3)c3ccccc3N3CCN(C(=O)c4sccc4Br)CC3)ccc2s1 [Example F27-S159, 5-(N-(2-(4-(3-bromothiophene-2-carbonyl)piperazin-1-yl)phenyl)-N-phenethylsulfamoyl)benzo[b]thiophene-2-carboxylic acid] | 0.1 to 10 µM
O=C(O)c1cc2ccc(S(=O)(=O)N(CCc3ccccc3)c3ccccc3N3CCN(C(=O)c4sccc4Br)CC3)cc2s1 [Example F27-S160, 6-(N-(2-(4-(3-bromothiophene-2-carbonyl)piperazin-1-yl)phenyl)-N-phenethylsulfamoyl)benzo[b]thiophene-2-carboxylic acid] | 0.1 to 10 µM
O=C(O)c1[nH]c2ccc(S(=O)(=O)N(CCc3ccccc3)c3ccccc3N3CCN(C(=O)c4sccc4Br)CC3)cc2c1Cl [Example F27-S161, 5-(N-(2-(4-(3-bromothiophene-2-carbonyl)piperazin-1-yl)phenyl)-N-phenethylsulfamoyl)-3-chloro-1H-indole-2-carboxylic acid] | 0.1 to 10 µM
O=C(O)c1cc2cc(S(=O)(=O)N(CCc3ccccc3)c3ccccc3N3CCN(C(=O)c4sccc4Br)CC3)ccc2o1 [Example F27-S162, 5-(N-(2-(4-(3-bromothiophene-2-formyl)piperazin-1-yl)phenyl)-N-phenethylsulfamoyl)benzofuran-2-carboxylic acid] | 0.1 to 10 µM
Cc1c(C(=O)O)oc2cc(S(=O)(=O)N(CCc3ccccc3)c3ccccc3N3CCN(C(=O)c4sccc4Br)CC3)ccc12 [Example F27-S163, 6-(N-(2-(4-(3-bromothiophene-2-formyl)piperazin-1-yl)phenyl)-N-phenethylsulfamoyl)3-methylbenzofuran-2-carboxylic acid] | 0.1 to 10 µM
O=C(O)c1cc2ccc(S(=O)(=O)N(CCc3ccccc3)c3ccccc3N3CCN(C(=O)c4sccc4Br)CC3)cc2o1 [Example F27-S164, 6-(N-(2-(4-(3-bromothiophene-2-formyl)piperazin-1-yl)phenyl)-N-phenethylsulfamoyl)benzofuran-2-carboxylic acid] | 0.1 to 10 µM
COc1ccc(CCN(c2ccccc2N2CCN(C(=O)c3sccc3Br)CC2)S(=O)(=O)c2ccc3sc(C(=O)O)c(C)c3c2)cc1 [Example F27-S165, 5-(N-(2-(4-(3-bromothiophene-2-formyl)piperazin-1-yl)phenyl)-N-(4-methoxyphenethyl)sulfamoyl)3-methylbenzothiophene-2-carboxylic acid] | 0.1 to 10 µM
Cc1c(C(=O)O)sc2ccc(S(=O)(=O)N(CCc3ccc(Cl)cc3)c3ccccc3N3CCN(C(=O)c4sccc4Br)CC3)cc12 [Example F27-S166, 5-(N-(2-(4-(3-bromothiophene-2-carbonyl)piperazin-1-yl)phenyl)-N-(4-chlorophenylethyl)sulfamoyl)-3-methylbenzothiophene-2-carboxylic] | 0.1 to 10 µM
Cc1ccc(CCN(c2ccccc2N2CCN(C(=O)c3sccc3Br)CC2)S(=O)(=O)c2ccc3sc(C(=O)O)c(C)c3c2)cc1 [Example F27-S167, 5-(N-(2-(4-(3-bromothiophene-2-carbonyl)piperazin-1-yl)phenyl)-N-(4-methylphenylethyl)sulfamoyl)-3-methylbenzothiophene-2-carboxylic acid] | 0.1 to 10 µM
Cc1c(C(=O)O)sc2ccc(S(=O)(=O)N(CCc3ccc(C(=O)O)cc3)c3ccccc3N3CCN(C(=O)c4sccc4Br)CC3)cc12 [Example F27-S168, 5-(N-(2-(4-(3-bromothiophene-2-carbonyl)piperazin-1-yl)phenyl)-N-(4-carboxyphenethyl)sulfamoyl)-3-toluenothiophene-2-carboxylic acid] | 0.1 to 10 µM
Cc1c(C(=O)O)sc2ccc(S(=O)(=O)N(CCc3ccc(C#N)cc3)c3ccccc3N3CCN(C(=O)c4sccc4Br)CC3)cc12 [Example F27-S169] | 0.1 to 10 µM
Cc1c(C(=O)O)sc2ccc(S(=O)(=O)N(CCc3ccc(C(F)(F)F)cc3)c3ccccc3N3CCN(C(=O)c4sccc4Br)CC3)cc12 [Example F27-S170, 5-(N-(2-(4-(3-bromothiophene-2-carbonyl)piperazin-1-yl)phenyl)-N-(4-(trifluoromethyl)phenethyl)sulfamoyl)-3-methylbenzothiophene-2-carboxylic acid] | 0.1 to 10 µM
Cc1c(C(=O)O)sc2ccc(S(=O)(=O)N(CCc3cccc(Cl)c3)c3ccccc3N3CCN(C(=O)c4sccc4Br)CC3)cc12 [Example F27-S172, 5-(N-(2-(4-(3-bromothiophene-2-carbonyl)piperazin-1-yl)phenyl)-N-(3-chlorophenethyl)sulfamoyl)-3-methylbenzothiophene-2-carboxylic acid] | 0.1 to 10 µM
Cc1c(C(=O)O)sc2ccc(S(=O)(=O)N(CCc3ccccc3Cl)c3ccccc3N3CCN(C(=O)c4sccc4Br)CC3)cc12 [Example F27-S173, 5-(N-(2-(4-(3-bromothiophene-2-carbonyl)piperazin-1-yl)phenyl)-N-(2-chlorophenethyl)sulfamoyl)-3-methylbenzothiophene-2-carboxylic acid] | 0.1 to 10 µM
COc1ccccc1CCN(c1ccccc1N1CCN(C(=O)c2sccc2Br)CC1)S(=O)(=O)c1ccc2sc(C(=O)O)c(C)c2c1 [Example F27-S174, 5-(N-(2-(4-(3-bromothiophene-2-carbonyl)piperazin-1-yl)phenyl)-N-(2-methoxyphenethyl)sulfamoyl)-3-methylbenzothiophene-2-carboxylic acid] | 0.1 to 10 µM
Cc1c(C(=O)O)sc2ccc(S(=O)(=O)N(CCc3ccccc3[N+](=O)[O-])c3ccccc3N3CCN(C(=O)c4sccc4Br)CC3)cc12 [Example F27-S175, 5-(N-(2-(4-(3-bromothiophene-2-carbonyl)piperazin-1-yl)phenyl)-N-(2-nitrophenylethyl)sulfamoyl)-3-toluothiophene-2-carboxylic acid] | 0.1 to 10 µM
